# ChEMBL document CHEMBL4725232, “Synthesis and biological activity of new bisbenzofuran-imidazolium salts” (Bioorg Med Chem Lett, 2020)
# Tests used:
# Assay type in all cases: functional, cell-based
# SMMC-7721 = experiment: Antiproliferative activity against human SMMC7721 by MTS assay
# A549 = experiment: Antiproliferative activity against human […] cells by MTS assay
# MCF7 = experiment: Antiproliferative activity against human MCF7 cells by MTS assay
# HL-60 = experiment: Antiproliferative activity against human HL60 cells by MTS assay
# SW480 = experiment: Antiproliferative activity against human SW480 cells by MTS assay
SMILES,IC50 (SMMC-7721),IC50 (A549),IC50 (MCF7),IC50 (HL-60),IC50 (SW480)
C(Cn1cnc2ccccc21)=C(c1cc2ccccc2o1)c1cc2ccccc2o1,> 20 µM,> 20 µM,> 20 µM,> 20 µM,> 20 µM
Cc1n(CC=C(c2cc3ccccc3o2)c2cc3ccccc3o2)c2ccccc2[n+]1CC(=O)c1ccccc1,1.34 µM,3.5 µM,0.8 µM,1.08 µM,0.79 µM
Cc1cc2c(cc1C)[n+](CC(=O)c1ccc(-c3ccccc3)cc1)cn2CC=C(c1cc2ccccc2o1)c1cc2ccccc2o1,9.04 µM,7.68 µM,8.67 µM,6.93 µM,6.42 µM
O=C(C[n+]1ccn(CC=C(c2cc3ccccc3o2)c2cc3ccccc3o2)c1)c1ccc(-c2ccccc2)cc1,8.04 µM,9.05 µM,7.57 µM,7.25 µM,7.2 µM
O=C(C[n+]1ccn(CC=C(c2cc3ccccc3o2)c2cc3ccccc3o2)c1)c1ccccc1,> 20 µM,> 20 µM,11.2 µM,6.95 µM,6.44 µM
Cc1n(CC=C(c2cc3ccccc3o2)c2cc3ccccc3o2)c2ccccc2[n+]1CC(=O)c1ccc(-c2ccccc2)cc1,1.67 µM,1.96 µM,1.23 µM,1.41 µM,1.48 µM
O=C(C[n+]1ccn(CC=C(c2cc3ccccc3o2)c2cc3ccccc3o2)c1)c1ccc2ccccc2c1,> 20 µM,> 20 µM,7.83 µM,7.73 µM,6.97 µM
Cc1cc2ncn(CC=C(c3cc4ccccc4o3)c3cc4ccccc4o3)c2cc1C,> 20 µM,> 20 µM,> 20 µM,> 20 µM,> 20 µM
Cc1cc2c(cc1C)[n+](CC(=O)c1ccc(Br)cc1)cn2CC=C(c1cc2ccccc2o1)c1cc2ccccc2o1,7.81 µM,7.42 µM,7.05 µM,6.27 µM,7.93 µM
Cc1n(CC=C(c2cc3ccccc3o2)c2cc3ccccc3o2)c2ccccc2[n+]1CC(=O)c1ccc2ccccc2c1,1.51 µM,1.58 µM,0.97 µM,1.58 µM,1.54 µM
O=C(C[n+]1ccn(CC=C(c2cc3ccccc3o2)c2cc3ccccc3o2)c1)c1ccc(Br)cc1,7.86 µM,8.47 µM,7.29 µM,8.4 µM,6.17 µM
C(Cn1ccnc1)=C(c1cc2ccccc2o1)c1cc2ccccc2o1,> 20 µM,> 20 µM,> 20 µM,> 20 µM,> 20 µM
Cc1nc2ccccc2n1CC=C(c1cc2ccccc2o1)c1cc2ccccc2o1,> 20 µM,> 20 µM,> 20 µM,> 20 µM,> 20 µM

# Next, values leading:
IC50 (SMMC-7721),IC50 (A549),IC50 (MCF7),IC50 (HL-60),IC50 (SW480),SMILES
6.84 µM,7.43 µM,1.72 µM,2.43 µM,0.8 µM,Cc1n(CC=C(c2cc3ccccc3o2)c2cc3ccccc3o2)c2ccccc2[n+]1CC(=O)c1ccc(Br)cc1
1.38 µM,1.47 µM,0.64 µM,1.11 µM,0.88 µM,COc1ccc(C(=O)C[n+]2c(C)n(CC=C(c3cc4ccccc4o3)c3cc4ccccc4o3)c3ccccc32)cc1
> 20 µM,> 20 µM,> 20 µM,> 20 µM,> 20 µM,COc1ccc(C(=O)C[n+]2ccn(CC=C(c3cc4ccccc4o3)c3cc4ccccc4o3)c2)cc1
5.9 µM,5.34 µM,2.38 µM,3.14 µM,2.36 µM,Cc1cc2c(cc1C)[n+](CC(=O)c1ccc3ccccc3c1)cn2CC=C(c1cc2ccccc2o1)c1cc2ccccc2o1
9.46 µM,8.25 µM,7.97 µM,8 µM,5.8 µM,COc1ccc(C(=O)C[n+]2cn(CC=C(c3cc4ccccc4o3)c3cc4ccccc4o3)c3cc(C)c(C)cc32)cc1
6.05 µM,6.46 µM,1.63 µM,1.73 µM,1.43 µM,O=C(C[n+]1cn(CC=C(c2cc3ccccc3o2)c2cc3ccccc3o2)c2ccccc21)c1ccc(Br)cc1
1.53 µM,2.32 µM,1.02 µM,1.19 µM,1.47 µM,COc1ccc(C(=O)C[n+]2cn(CC=C(c3cc4ccccc4o3)c3cc4ccccc4o3)c3ccccc32)cc1
3.93 µM,6.02 µM,1.56 µM,1.44 µM,1.92 µM,O=C(C[n+]1cn(CC=C(c2cc3ccccc3o2)c2cc3ccccc3o2)c2ccccc21)c1ccccc1
1.46 µM,1.54 µM,1.44 µM,1.63 µM,1.77 µM,O=C(C[n+]1cn(CC=C(c2cc3ccccc3o2)c2cc3ccccc3o2)c2ccccc21)c1ccc2ccccc2c1
6.69 µM,7.23 µM,2.42 µM,5.33 µM,5.94 µM,O=C(C[n+]1cn(CC=C(c2cc3ccccc3o2)c2cc3ccccc3o2)c2ccccc21)c1ccc(-c2ccccc2)cc1
6.38 µM,7.08 µM,3.42 µM,4.33 µM,4.3 µM,Cc1cc2c(cc1C)[n+](CC(=O)c1ccccc1)cn2CC=C(c1cc2ccccc2o1)c1cc2ccccc2o1
